The source of these data is PMC9851200, “Multiparameter phenotypic screening for endogenous TFEB and TFE3 translocation identifies novel chemical series modulating lysosome function” (Autophagy, 2022).

Read-outs that look alike come from different tables or passages of the source.

Common to all, as to details: PKIS2 primary screening
Series [1] has as its system endogenous TFEB. Nature of the series: TFEB nuclear translocation, immunocytochemistry high-content imaging. It counts as cell-based.
Series [2] relates to endogenous TFE3. Nature of the series: TFE3 nuclear translocation, immunocytochemistry high-content imaging. It counts as cell-based.
Series [3] has as its system SH-SY5Y cells.
Source text: The PKIS2 Library was supplied by The Structural Genomics Consortium at the University of North Carolina at Chapel Hill.
In series [4] the test system is SH-SY5Y cells. Briefly: AK (adenylate kinase) release ToxiLight cytotoxicity assay. Also: reference of the scale not given here.
For series [5], the system named is SH-SY5Y cells. Briefly: Nuclear count from microscopy images (cellular growth and toxicity). Also: reference of the scale not given here.
For DQ Intensity in this document: reference of the scale not given here.
For DQ Spot in this document: reference of the scale not given here.

`CC(=O)c1c(-c2ccncc2)[nH]c(-c2ccncc2)c1C` [UNC10225248A]: the TFEB % in series [1] is listed as 5.93%. Moreover, in series [2], the TFE3 % turned out to be 12.82%. In series [3], the “DQ Intensity” value came to 75.03 and the “DQ Spot” value is given as 97.66. Also, in series [4], the AK is recorded as 107.07. In addition, in series [5], the “Nuclear Count” value is recorded as 71.54.
Regarding `O=C(Nc1ccccc1F)NC1CCN(c2ccnc(Nc3ccc(F)cc3)n2)CC1` [GSK1379800], the TFEB % in series [1] came to 6.86%. In addition, in series [2], the TFE3 % came to 9.18%. For the same compound, in series [3] (DQ Red BSA intensity), the “DQ Intensity” value amounted to 95.32. Further, in series [3] (DQ Red BSA spot count), the “DQ Spot” value is reported as 97.06. This compound also yielded an AK in series [4] of 198.42. Besides, in series [5], the “Nuclear Count” value was 118.12.
In turn, `COC(=O)Nc1nc2ccc(Oc3ccc(CC(=O)Nc4cc(C(F)(F)F)ccc4F)cc3)cc2[nH]1` [GW680903] registered a TFEB % in series [1] of 2.10%. Also, the TFE3 % in series [2] is 12.77%. Further, the “DQ Intensity” value in series [3] (DQ Red BSA intensity) is 59.92. In addition, the “DQ Spot” value in series [3] (DQ Red BSA spot count) amounted to 85.78. In series [4], this compound registered an AK of 72.57. Moreover, in series [5], the “Nuclear Count” value was determined as 109.57.
The compound `NCCC(NC(=O)c1cc(Br)c(-c2ccnc3[nH]ccc23)s1)c1ccccc1.O=C(O)C(F)(F)F.O=C(O)C(F)(F)F` (stereo not drawn) [UNC10225503A] had a TFEB % in series [1] of 3.19%. The TFE3 % in series [2] is listed as 15.14%. In addition, the “DQ Intensity” value in series [3] (DQ Red BSA intensity) worked out at 126.00. Moreover, the “DQ Spot” value in series [3] (DQ Red BSA spot count) was determined as 127.76. Besides, the AK in series [4] is reported as 81.01. Moreover, the “Nuclear Count” value in series [5] came to 121.43.
In turn, `[2H]C([2H])(c1cccc(C(F)(F)F)c1C)n1ccn2c(=O)nc(N3CCOCC3)cc12` [UNC10243860A] came in with a TFEB % in series [1] of 4.33%. The TFE3 % in series [2] turned out to be 12.75%. In addition, in series [3], the “DQ Intensity” value is recorded as 104.50 and the “DQ Spot” value stood at 118.55. In addition, the AK in series [4] is listed as 87.88. The “Nuclear Count” value in series [5] was found to be 110.69.
Consider `COc1ccc(Nc2nccc(NCCNC(=O)Nc3ccccc3F)n2)cc1` [GSK1379901], for which the TFEB % in series [1] came out at 13.61%. Besides, in series [2], the TFE3 % amounted to 12.56%. For the same compound, the “DQ Intensity” value in series [3] (DQ Red BSA intensity) is on record as 112.97. In series [3] (DQ Red BSA spot count), the “DQ Spot” value is 125.52. Besides, the AK in series [4] is 100.88. For the same compound, the “Nuclear Count” value in series [5] stood at 49.37.
For the compound `Nc1nccc(-c2c(-c3ccc(F)cc3)ncn2C2CCN(CC(F)(F)F)CC2)n1` [UNC10225173A], the TFEB % in series [1] was found to be 11.13%. The compound also gave a TFE3 % in series [2] of 11.80%. For the same compound, in series [3], the “DQ Intensity” value was 90.34 and the “DQ Spot” value amounted to 99.50. In series [4], this compound registered an AK of 117.50. Also, the “Nuclear Count” value in series [5] was found to be 107.53.
In series [1], `Cl.Oc1cc(-c2nc(-c3ccccc3)[nH]c2-c2ccncc2)ccc1Cl` [UNC10225128B] came in with a TFEB % of 6.45%. In series [2], this compound showed a TFE3 % of 11.76%. Moreover, the “DQ Intensity” value in series [3] (DQ Red BSA intensity) stood at 96.34. In addition, the “DQ Spot” value in series [3] (DQ Red BSA spot count) is given as 92.51. Also, in series [4], the AK is 91.39. Also, the “Nuclear Count” value in series [5] turned out to be 80.05.
In series [1], `FC(F)(F)c1ccc(-c2nn3ncccc3c2-c2ccnc(Nc3cccc(C(F)(F)F)c3)n2)cc1` [UNC10225138A] displayed a TFEB % of 4.73%. For the same compound, the TFE3 % in series [2] amounted to 11.01%. Besides, in series [3], the “DQ Intensity” value is listed as 102.80 and the “DQ Spot” value worked out at 109.82. In series [4], this compound had an AK of 86.01. In addition, the “Nuclear Count” value in series [5] amounted to 92.79.
As for `CCn1cnc2c(NCc3ccccc3)ncnc21` [UNC10225370A], in series [1], the TFEB % stood at 4.85%. The compound also registered a TFE3 % in series [2] of 13.91%. In series [3], the “DQ Intensity” value was found to be 98.37 and the “DQ Spot” value came to 103.57. The same compound returned an AK in series [4] of 79.45. The “Nuclear Count” value in series [5] was determined as 102.90.
In turn, `CN(C)c1cc(-c2ccc3c(N)n[nH]c3c2)nc(N)n1` [GSK2219329] had a TFEB % in series [1] of 4.04%. This compound had a TFE3 % in series [2] of 13.03%. Besides, in series [3] (DQ Red BSA intensity), the “DQ Intensity” value is recorded as 87.81. For the same compound, the “DQ Spot” value in series [3] (DQ Red BSA spot count) amounted to 98.17. In series [4], this compound had an AK of 83.85. Moreover, the “Nuclear Count” value in series [5] is reported as 85.79.
As for `COc1cc2ncn(-c3cc(OCCCc4ccccc4)c(C(N)=O)s3)c2cc1OC` [UNC10225450A], the TFEB % in series [1] is listed as 3.13%. In series [2], this compound had a TFE3 % of 11.96%. In series [3], the “DQ Intensity” value came to 116.92 and the “DQ Spot” value turned out to be 123.73. The same compound returned an AK in series [4] of 94.56. For the same compound, in series [5], the “Nuclear Count” value was found to be 118.22.
In turn, `Cc1cccc(-c2cc(-c3c[nH]nc3-c3ccccn3)ccn2)c1` [UNC10225499A] had a TFEB % in series [1] of 5.43%. The compound further gave a TFE3 % in series [2] of 5.64%. For the same compound, the “DQ Intensity” value in series [3] (DQ Red BSA intensity) worked out at 88.33. Moreover, in series [3] (DQ Red BSA spot count), the “DQ Spot” value came to 90.33. The compound further showed an AK in series [4] of 88.92. Moreover, in series [5], the “Nuclear Count” value came out at 133.11.
Take `Cc1cc(-c2ccnc(Nc3cccc(C#N)c3)n2)cc(C)c1O` [GSK1440913]: the TFEB % in series [1] worked out at 7.49%. This compound registered a TFE3 % in series [2] of 21.61%. In addition, the “DQ Intensity” value in series [3] (DQ Red BSA intensity) is 63.54. Moreover, in series [3] (DQ Red BSA spot count), the “DQ Spot” value is 78.51. Moreover, in series [4], the AK was found to be 97.58. Further, the “Nuclear Count” value in series [5] is given as 76.93.
